Results on 26 compounds are retold here after ChEMBL document CHEMBL1817600, “Design, synthesis, and biological evaluation of imidazoline derivatives as p53-MDM2 binding inhibitors” (Bioorg Med Chem, 2011).

The target of test [1] is Tumour suppressor p53/oncoprotein Mdm2 (Homo sapiens, UniProt Q00987). Kind of test: (§1) Inhibition of p53-MDM2 expressed in Escherichia coli BL-21 (DE3) after 1 hr by fluorescence polarization competitive binding assay.
Test [2] addresses Tumour suppressor p53/oncoprotein Mdm2 (Homo sapiens, UniProt P04637+Q00987). Described as §1.
Test [3] relates to A549. Kind of test: Antiproliferative activity against human A549 cells expressing wild type p53 after 72 hrs by MTT assay. The conditions noted are these: A549, 72 h.
The subject of a further test is PC-3. Briefly: Antiproliferative activity against p53 deficient human PC3 cells after 72 hrs by MTT assay. The following applies: PC-3, 72 h.
For another test, the system named is HCT-116. Briefly: Antiproliferative activity against human HCT116 cells expressing wild type p53 after 72 hrs by MTT assay.
The subject of another test is KB. Kind of test: Antiproliferative activity against human KB cells expressing p53 mutant after 72 hrs by MTT assay. It is filed as functional, cell-based.
Test [4] deals with A549. Kind of test: Cell cycle arrest in human A549 cells expressing wild type p53 assessed as accumulation at G2/M phase at 10 uM after 72 hrs using propidium iodide staining by flow cytometric analysis (reference value: 7.49%). It is filed as functional.
Test [5] has as its system A549. Kind of test: Cell cycle arrest in human A549 cells expressing wild type p53 assessed as accumulation at G0/G1 phase at 10 uM after 72 hrs using propidium iodide staining by flow cytometric analysis (reference value: 73.28%). The format is functional.
The subject of test [6] is A549. Briefly: Cell cycle arrest in human A549 cells expressing wild type p53 assessed as accumulation at S phase at 10 uM after 72 hrs using propidium iodide staining by flow cytometric analysis (reference value: 19.23%). The format is functional.

Sequence of Tumour suppressor p53/oncoprotein Mdm2 (Homo sapiens, UniProt P04637+Q00987) (P04637 whole entry): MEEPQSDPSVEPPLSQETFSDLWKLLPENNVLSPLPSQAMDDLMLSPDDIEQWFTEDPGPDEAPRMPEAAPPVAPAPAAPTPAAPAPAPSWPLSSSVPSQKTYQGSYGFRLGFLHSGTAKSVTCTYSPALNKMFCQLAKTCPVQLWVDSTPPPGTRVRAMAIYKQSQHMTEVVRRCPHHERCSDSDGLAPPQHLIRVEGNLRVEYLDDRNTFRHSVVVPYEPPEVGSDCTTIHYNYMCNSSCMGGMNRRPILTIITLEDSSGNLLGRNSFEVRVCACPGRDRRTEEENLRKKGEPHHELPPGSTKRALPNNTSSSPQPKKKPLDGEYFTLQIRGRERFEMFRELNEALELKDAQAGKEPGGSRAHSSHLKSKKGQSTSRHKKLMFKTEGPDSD
Sequence of Tumour suppressor p53/oncoprotein Mdm2 (Homo sapiens, UniProt P04637+Q00987) (Q00987 whole entry): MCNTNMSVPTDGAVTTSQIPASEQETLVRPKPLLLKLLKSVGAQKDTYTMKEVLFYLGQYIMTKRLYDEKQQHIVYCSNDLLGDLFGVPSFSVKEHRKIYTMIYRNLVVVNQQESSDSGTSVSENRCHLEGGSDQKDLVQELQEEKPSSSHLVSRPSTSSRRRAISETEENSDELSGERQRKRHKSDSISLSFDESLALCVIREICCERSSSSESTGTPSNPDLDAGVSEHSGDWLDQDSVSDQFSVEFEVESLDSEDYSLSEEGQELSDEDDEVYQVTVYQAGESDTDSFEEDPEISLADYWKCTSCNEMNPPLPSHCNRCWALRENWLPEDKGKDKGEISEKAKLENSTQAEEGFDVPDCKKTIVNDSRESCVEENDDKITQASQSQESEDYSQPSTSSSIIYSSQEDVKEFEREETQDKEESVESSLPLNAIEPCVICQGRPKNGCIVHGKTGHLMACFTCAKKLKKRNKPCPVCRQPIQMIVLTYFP
Sequence of Tumour suppressor p53/oncoprotein Mdm2 (Homo sapiens, UniProt Q00987) (P04637 whole entry): as the sequence (P04637 whole entry) above
Sequence of Tumour suppressor p53/oncoprotein Mdm2 (Homo sapiens, UniProt Q00987) (Q00987 whole entry): as the sequence (Q00987 whole entry) above

In turn, `COc1ccc(C2=NC(c3ccc(Cl)cc3)C(c3ccc(Cl)cc3)N2C(=O)CN2CCCCC2)c(OC(C)C)c1` (configuration not stated) displayed a Ki in test [1] of 82.1 µM.
For the compound `COc1ccc(C2=NC(c3ccc(C(F)(F)F)cc3)C(c3ccc(C(F)(F)F)cc3)N2C(=O)N2CCN(C(C)=O)CC2)c(OC(C)C)c1` (configuration not stated), the inhibitory constant (Ki) result in [2] was “Not Active”.
As for `COc1ccc(C2=NC(c3ccc(Cl)cc3)C(c3ccc(Cl)cc3)N2C(=O)OCCN(C)C)c(OC(C)C)c1` (configuration not stated), the IC50 in the test on A549 [3] is 10.8 µM; in the test on PC-3, 11 µM; in the test with HCT-116 (hct-116) it was “Not Active”; in the test with KB, 8.27 µM. This compound showed a Ki in test [1] of 0.57 µM.
Take `CCOCCOC(=O)N1C(c2ccc(OC)cc2OC(C)C)=NC(c2ccc(Cl)cc2)C1c1ccc(Cl)cc1` (configuration not stated): in [1], the Ki is 1.38 µM.
In the case of `COc1ccc(C2=NC(c3ccc(Cl)cc3)C(c3ccc(Cl)cc3)N2C(=O)CCN2CCN(C)CC2)c(OC(C)C)c1` (configuration not stated), the IC50 worked out at 3.19 µM with A549 [3]; 8.44 µM in the test on PC-3; 5.4 µM with HCT-116 (Homo sapiens, HCT-116, 72 h); 5.81 µM with KB. The Ki in test [1] was determined as 0.9 µM.
Turning to `CCN(CC)CC(=O)N1C(c2ccc(OC)cc2OC(C)C)=NC(c2ccc(Cl)cc2)C1c1ccc(Cl)cc1` (configuration not stated), the Ki entry in test [2] was “Not Active”.
With `COc1ccc(C2=NC(c3ccc(Cl)cc3)C(c3ccc(Cl)cc3)N2C(=O)NCC(=O)N2CCOCC2)c(OC(C)C)c1` (configuration not stated), the IC50 in the test with A549 [3] came to 8.29 µM; in the test with PC-3, 14.3 µM; with HCT-116 (Homo sapiens, HCT-116, 72 h) it was 10.9 µM; with KB, 7.39 µM. This compound also displayed an inhibitory constant (Ki) in test [1] of 0.48 µM.
The compound `COCCOC(=O)N1C(c2ccc(OC)cc2OC(C)C)=NC(c2ccc(Cl)cc2)C1c1ccc(Cl)cc1` (configuration not stated) displayed an inhibition constant (Ki) in test [1] of 2.3 µM.
For the compound `CCN(CC)CCC(=O)N1C(c2ccc(OC)cc2OC(C)C)=NC(c2ccc(Cl)cc2)C1c1ccc(Cl)cc1` (configuration not stated), the IC50 in the test on A549 [3] was found to be 3.82 µM; in the test on PC-3, 3.32 µM; with HCT-116 (Homo sapiens, HCT-116, 72 h) it was 3.73 µM. In test [1], this compound had a Ki of 1.22 µM.
With `COc1ccc(C2=NC(c3ccc(Cl)cc3)C(c3ccc(Cl)cc3)N2C(=O)N(C)C)c(OC(C)C)c1` (configuration not stated), in test [1], the inhibition constant Ki is 3.32 µM.
On the same count and under the same terms, then `COc1ccc(C2=NC(c3ccc(Cl)cc3)C(c3ccc(Cl)cc3)N2C(=O)N2CCC(C(=O)O)CC2)c(OC(C)C)c1` (configuration not stated), with 8.77 µM.
Regarding `CCC1=NC(c2ccc(Cl)cc2)C(c2ccc(Cl)cc2)N1C(=O)Nc1ccc(N2CCCC2)cc1` (configuration not stated), in test [2], the Ki entry is given as “Not Active”.
For `COc1ccc(C2=NC(c3ccc(Cl)cc3)C(c3ccc(Cl)cc3)N2C(=O)CCN2CCOCC2)c(OC(C)C)c1` (configuration not stated), the IC50 worked out at 3.82 µM in the test with A549 [3]; 2.74 µM with PC-3; 7.57 µM in the test with HCT-116 (Homo sapiens, HCT-116, 72 h). Also, in test [1], the affinity, expressed as Ki, was 1.3 µM.
For the compound `COc1ccc(C2=NC(c3ccccc3)C(c3ccccc3)N2C(=O)CN2CCN(C)CC2)c(OC(C)C)c1` (configuration not stated), the Ki result in test [2] is “Not Active”.
For `COc1ccc(C2=NC(c3ccc(Cl)cc3)C(c3ccc(Cl)cc3)N2C(=O)N2CCN(C(C)=O)CC2)c(OC(C)C)c1` (configuration not stated), the Activity is given as 19.27% in the test on A549 [4], 66.95% in the test on A549 [5] and 13.78% in the test with A549 [6]. In addition, the IC50 with A549 [3] is 2.33 µM; in the test on PC-3 it was 29.2 µM; in the test on HCT-116 (Homo sapiens, HCT-116, 72 h) it was 4.58 µM; in the test with KB it was 35.2 µM.
Take `COc1ccc(C2=NC(c3ccc(Cl)cc3)C(c3ccc(Cl)cc3)N2C(=O)OCCNC(C)=O)c(OC(C)C)c1` (configuration not stated): the Activity amounted to 30.93% with A549 [4], 61.67% in the test on A549 [5] and 7.4% in the test with A549 [6]. Further, the IC50 is 9.1 µM with A549 [3]; 33.1 µM in the test on PC-3; 5.81 µM with HCT-116 (Homo sapiens, HCT-116, 72 h); 3.6 µM in the test with KB. The Ki in test [1] amounted to 0.6 µM.
Regarding `CCC1=NC(c2ccc(Cl)cc2)C(c2ccc(Cl)cc2)N1C(=O)N1CCN(C)CC1` (configuration not stated), the Ki result in test [2] is on record as “Not Active”.
Still for that read-out and setting: then `CCN(CC)CC(=O)N1C(c2ccc(OC)cc2OC(C)C)=NC(c2ccccc2)C1c1ccccc1` (configuration not stated), with “Not Active”.
In turn, `CCOC(=O)CN(C)C(=O)N1C(c2ccc(OC)cc2OC(C)C)=NC(c2ccc(Cl)cc2)C1c1ccc(Cl)cc1` (configuration not stated) came in with a Ki in [1] of 1.59 µM.
Take `CCC1=NC(c2ccc(Cl)cc2)C(c2ccc(Cl)cc2)N1C(=O)N(CC)CC` (configuration not stated): the Ki entry in test [2] is reported as “Not Active”.
`COc1ccc(C2=NC(c3ccc(Cl)cc3)C(c3ccc(Cl)cc3)N2C(=O)OCc2ccccc2)c(OC(C)C)c1` (configuration not stated) had a Ki in [1] of 32.4 µM.
`COc1ccc(C2=NC(c3ccc(Cl)cc3)C(c3ccc(Cl)cc3)N2C(=O)N2CCOCC2)c(OC(C)C)c1` (configuration not stated) gave a Ki in [1] of 4.07 µM.
In the case of `COc1ccc(C2=NC(c3ccc(C(F)(F)F)cc3)C(c3ccc(C(F)(F)F)cc3)N2C(=O)CN2CCN(C(C)=O)CC2)c(OC(C)C)c1` (configuration not stated), the inhibition constant (Ki) entry in test [2] is listed as “Not Active”.
For the compound `COc1ccc(C2=NC(c3ccc(Cl)cc3)C(c3ccc(Cl)cc3)N2C(=O)CN2CCOCC2)c(OC(C)C)c1` (configuration not stated), in [1], the inhibition constant Ki worked out at 2.64 µM.
The same measure, in the same setting: the result for `COc1ccc(C2=NC(c3ccc(Cl)cc3)C(c3ccc(Cl)cc3)N2C(=O)CN2CCN(C)CC2)c(OC(C)C)c1` (configuration not stated) reads 25.8 µM.
As for `CCC1=NC(c2ccc(Cl)cc2)C(c2ccc(Cl)cc2)N1C(=O)NCC(=O)N1CCOCC1` (configuration not stated), the inhibition constant Ki result in test [2] is listed as “Not Active”.
